Patent US9670261B2 (Sanofi, priority 2012, dated 2017)
*1 amine or outer side, *2 acyl side, *3 side chain or, on linkers, in order; H or OH if unused. Where a SMILES comes first, the peptide text is derived from it. Side-chain parts run from the residue outwards. [ ]: non-standard residue; d: D form. The star is where a group is joined. γGlu = O=C(O)[C@H](CCC(=O)[*:2])N[*:1]; Palmitoyl = CCCCCCCCCCCCCCCC(=O)*; Aib = CC(C)(N)C(=O)O

Experiments:
human glucagon receptor = target: T1, human glucagon receptor (Homo sapiens, UniProt P47871); assay: cAMP response (HTRF) of HEK-293 cells stably expressing human glucagon receptor; assay type: cell-based; conditions: Table 7; cAMP formation; read-out: EC50 hGLUC R
T1 construct: expressed in transfected cells
Protocol: cAMP content of cells was determined using a kit from Cisbio Corp. (cat. no. 62AM4PEC) based on HTRF (Homogenous Time Resolved Fluorescence). For preparation, cells were split into T175 culture flasks and grown overnight to near confluency in medium (DMEM/10% FBS). Medium was then removed and cells washed with PBS lacking calcium and magnesium, followed by proteinase treatment with accutase (Sigma-Aldrich cat. no. A6964). Detached cells were washed and resuspended in assay buffer (1×HBSS; 20 mM HEPES, 0.1% BSA, 2 mM IBMX) and cellular density determined. They were then diluted to 400000 cells/ml and 25 μl-aliquots dispensed into the wells of 96-well plates. For measurement, 25 μl of test compound in assay buffer was added to the wells, followed by incubation for 30 minutes at room temperature.

human GIP receptor = target: T2, human GIP receptor (Homo sapiens, UniProt P48546); assay: cAMP response (HTRF) of HEK-293 cells stably expressing human GIP receptor; assay type: cell-based; conditions: Table 7; cAMP formation; read-out: EC50 hGIP R
T2 construct: expressed in transfected cells
T2 sequence (P48546 22-466): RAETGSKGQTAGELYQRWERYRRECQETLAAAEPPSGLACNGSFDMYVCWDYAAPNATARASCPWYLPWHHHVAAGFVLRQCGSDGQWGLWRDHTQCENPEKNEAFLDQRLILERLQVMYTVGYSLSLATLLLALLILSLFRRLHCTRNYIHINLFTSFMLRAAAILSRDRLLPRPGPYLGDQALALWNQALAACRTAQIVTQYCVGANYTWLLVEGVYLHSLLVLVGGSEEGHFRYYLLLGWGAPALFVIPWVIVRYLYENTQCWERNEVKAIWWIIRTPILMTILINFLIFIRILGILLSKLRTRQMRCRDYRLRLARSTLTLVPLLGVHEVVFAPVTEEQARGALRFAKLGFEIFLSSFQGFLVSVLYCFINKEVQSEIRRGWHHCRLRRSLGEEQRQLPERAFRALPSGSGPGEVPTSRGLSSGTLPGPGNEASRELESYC
Outline: (§1)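 Intracellular cAMP is quantified by HTRF following a 30-minute room-temperature incubation of cell suspensions (400000 cells/ml) with test compound in HBSS, 20 mM HEPES, 0.1% BSA and 2 mM IBMX.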

female NMRI-mice = assay: Automated assessment of 22-hours feed intake in mice; assay type: in vivo; conditions: 0.1 mg/kg s.c.
Protocol: Female NMRI-mice of a body weight between 20 and 30 g were used. Mice were adapted to housing conditions for at least one week and for at least one day single-caged in the assessment equipment, when basal data were recorded simultaneously. On the study day, test product was administered subcutaneously close to the lights-off phase (12 h lights off) and assessment of feed consumption was directly started afterwards. Assessment included continued monitoring over 22 hours, while data are processed as mean over every 30 min. Repetition of this procedure over several days was possible. Restriction of assessment to 22 hours was for practical reasons to allow for reweighing of animals, refilling of feed and water and drug administration between procedures. Results could be assessed as cumulated data over 22 hours or differentiated to 30 min intervals. […] Statistical analyses were performed with Everstat 6.0 by two-way ANOVA on repeated measures and Dunnett's post-hoc analyses. Differences were considered statistically significant at the p<0.05 level. […] Lights-off phase (dark phase) started 4 hours later. […].

[1] = test system: female leptin-receptor deficient diabetic db/db mice; assay: Blood glucose and HbA1c in leptin-receptor deficient diabetic db/db mice (method 3); assay type: in vivo; conditions: single 100 μg/kg s.c., fed db/db mice
Text: Female BKS.Cg-m+/+Leprdb/J (db/db) and BKS.Cg-m+/+Leprdb/+(lean control) mice were obtained from Charles River Laboratories, Germany, at an age of 9-10 weeks. The animals were housed in groups in a specific pathogen-free barrier facility on a 12-h light/dark cycle with free access to water and rodent-standard chow. After 1 week of acclimatization, blood samples were drawn from the tail without anaesthesia and blood glucose (method: d-glucose hexokinase, hemolysate, AU640 Beckman Coulter) and HbA1c level (method: hemolysate, Cobas6000 c501, Roche Diagnostics, Germany) were determined. […] The volume of administration was 5 mL/kg. The animals had access to water and chow during the experiment, food consumption was determined at all time points of blood sampling. […] Blood sampling was performed by tail incision without anaesthesia. […] At the end of the study, blood samples (tail, no anaesthesia) were analyzed for glucose and HbA1c. […] Statistical analyses were performed with Everstat 6.0 by repeated measures two-way ANOVA and Dunnett's post-hoc analyses. Differences versus vehicle-treated db/db control mice were considered statistically significant at the p<0.05 level. […] At predefined time points, more blood samples were taken to measure blood glucose and generate the blood glucose profile over 24 h. […] Blood glucose and HbA1c were determined before start of treatment and at the end of the study after 4 weeks of treatment. […] Before treatment started, no significant differences in blood glucose levels could be detected between db/db groups, only the lean control animals had significant lower glucose levels. During the 4 weeks of treatment, glucose levels increased in the vehicle-treated db/db control group, indicating a worsening of the diabetic situation.

in vivo = conditions: mouse, sc, 1 mg/kg
Protocol: (§2) Mice were dosed 1 mg/kg subcutaneously (s.c.). The mice were sacrified and blood samples were collected after 0.25, 0.5, 1, 2, 4, 8, 16 and 24 hours post application. Plasma samples were analyzed after protein precipitation via liquid chromatography mass spectrometry (LC/MS). PK parameters and half-life were calculated using WinonLin Version 5.2.1 (non-compartment model).

human GLP-1 receptor = target: T3, human GLP-1 receptor (Homo sapiens, UniProt P43220); assay: cAMP response (HTRF) of HEK-293 cells stably expressing human GLP-1 receptor; assay type: cell-based; conditions: Table 7; cAMP formation; read-out: EC50 hGLP-1 R
T3 construct: expressed in transfected cells
Outline: as §1

[2] = Pharmacokinetic testing in mice, s.c.; conditions: mouse, plasma, sc, 1 mg/kg
Protocol: as §2

T1 sequence (P47871 26-477): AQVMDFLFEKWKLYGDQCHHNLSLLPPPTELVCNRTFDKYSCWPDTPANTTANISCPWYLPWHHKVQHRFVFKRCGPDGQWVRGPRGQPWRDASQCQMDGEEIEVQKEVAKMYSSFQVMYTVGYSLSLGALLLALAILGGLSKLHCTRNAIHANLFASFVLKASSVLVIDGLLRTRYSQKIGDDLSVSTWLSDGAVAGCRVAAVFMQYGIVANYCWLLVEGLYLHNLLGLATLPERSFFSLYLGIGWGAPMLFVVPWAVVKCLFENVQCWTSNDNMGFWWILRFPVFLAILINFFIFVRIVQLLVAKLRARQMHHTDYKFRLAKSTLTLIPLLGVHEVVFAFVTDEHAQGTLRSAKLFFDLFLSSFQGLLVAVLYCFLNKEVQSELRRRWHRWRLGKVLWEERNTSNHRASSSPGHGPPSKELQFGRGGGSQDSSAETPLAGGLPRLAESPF
T3 sequence (P43220 24-463): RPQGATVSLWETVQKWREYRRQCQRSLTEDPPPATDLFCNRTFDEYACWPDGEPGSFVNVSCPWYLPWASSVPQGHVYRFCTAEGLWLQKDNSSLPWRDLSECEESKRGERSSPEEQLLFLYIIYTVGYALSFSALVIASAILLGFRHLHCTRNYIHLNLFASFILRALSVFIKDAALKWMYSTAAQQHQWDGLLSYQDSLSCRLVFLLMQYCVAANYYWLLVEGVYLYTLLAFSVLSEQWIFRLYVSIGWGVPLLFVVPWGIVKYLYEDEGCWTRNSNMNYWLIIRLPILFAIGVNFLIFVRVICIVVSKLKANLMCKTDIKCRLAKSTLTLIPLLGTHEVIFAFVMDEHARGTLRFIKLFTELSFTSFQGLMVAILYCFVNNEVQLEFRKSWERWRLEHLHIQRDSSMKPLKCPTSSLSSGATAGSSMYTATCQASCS

Structure (SMILES)	EC50 (human glucagon receptor) [nM]	EC50 (human GIP receptor) [nM]	reduction of feed intake after 22 hours (female NMRI-mice) [%]	solubility at 2 h (physchem; pH 4.5) [µg/mL]	solubility at 2 h (physchem; pH 7.4) [µg/mL]	blood glucose compared to db/db control mice, 24 h profile [1]	Cmax (in vivo) [ng/mL]	half-life (in vivo) [h]	EC50 (human GLP-1 receptor) [nM]	Cmax [2] [ng/mL]	half-life [2] [h]
CCCCCCCCCCCCCCCC(=O)N[C@@H](CCC(=O)NCCCC[C@H](NC(=O)[C@H](CCC(N)=O)NC(=O)[C@@H](NC(=O)[C@H](CO)NC(=O)[C@H](CC(C)C)NC(=O)[C@H](CC(=O)O)NC(=O)[C@H](CO)NC(=O)[C@@H](NC(=O)[C@H](Cc1ccccc1)NC(=O)[C@@H](NC(=O)CNC(=O)[C@H](CCC(=O)O)NC(=O)C(C)(C)NC(=O)[C@@H](N)Cc1ccc(O)cc1)[C@@H](C)O)[C@@H](C)O)[C@@H](C)CC)C(=O)N[C@@H](CC(=O)O)C(=O)N[C@@H](CO)C(=O)N[C@@H](CCCNC(=N)N)C(=O)N[C@@H](C)C(=O)N[C@@H](C)C(=O)N[C@@H](CCC(N)=O)C(=O)N[C@@H](CC(=O)O)C(=O)N[C@@H](Cc1ccccc1)C(=O)N[C@H](C(=O)N[C@@H](CCC(=O)O)C(=O)N[C@@H](Cc1c[nH]c2ccccc12)C(=O)N[C@@H](CC(C)C)C(=O)N[C@@H](CCCCN)C(=O)N[C@@H](C)C(=O)NCC(=O)NCC(=O)N1CCC[C@H]1C(=O)N[C@@H](CO)C(=O)N[C@@H](CO)C(=O)NCC(=O)N[C@@H](C)C(=O)N1CCC[C@H]1C(=O)N1CCC[C@H]1C(=O)N1CCC[C@H]1C(=O)N[C@@H](CO)C(N)=O)[C@@H](C)CC)C(=O)O [SEQ ID NO: 22, Y-Aib-E-G-T-F-T-S-D-L-S-I-Q-K(γE-x53)-DSRAAQDFIEWLKAGGPSSGAPPPS-NH2] (H-Y[Aib]EGTFTSDLSIQK([γGlu-Palmitoyl])DSRAAQDFIEWLKAGGPSSGAPPPS-NH2)	11.6										
CCCCCCCCCCCCCCCC(=O)N[C@@H](CCC(=O)NCCCC[C@H](NC(=O)[C@H](CCC(N)=O)NC(=O)[C@@H](NC(=O)[C@H](CO)NC(=O)[C@H](CC(C)C)NC(=O)[C@H](CC(=O)O)NC(=O)[C@H](CO)NC(=O)[C@@H](NC(=O)[C@H](Cc1ccccc1)NC(=O)[C@@H](NC(=O)CNC(=O)[C@H](CCC(=O)O)NC(=O)C(C)(C)NC(=O)[C@@H](N)Cc1ccc(O)cc1)[C@@H](C)O)[C@@H](C)O)[C@@H](C)CC)C(=O)N[C@@H](CC(=O)O)C(=O)N[C@@H](CCCCN)C(=O)N[C@@H](CCCNC(=N)N)C(=O)N[C@@H](C)C(=O)N[C@@H](C)C(=O)N[C@@H](CCC(N)=O)C(=O)N[C@@H](CC(=O)O)C(=O)N[C@@H](Cc1ccccc1)C(=O)N[C@H](C(=O)N[C@@H](CCC(=O)O)C(=O)N[C@@H](Cc1c[nH]c2ccccc12)C(=O)N[C@@H](CC(C)C)C(=O)N[C@@H](CCCCN)C(=O)N[C@@H](CC(N)=O)C(=O)NCC(=O)NCC(=O)N1CCC[C@H]1C(=O)N[C@@H](CO)C(=O)N[C@@H](CO)C(=O)NCC(=O)N[C@@H](C)C(=O)N1CCC[C@H]1C(=O)N1CCC[C@H]1C(=O)N1CCC[C@H]1C(=O)N[C@@H](CO)C(N)=O)[C@@H](C)CC)C(=O)O [SEQ ID NO: 12, Y-Aib-E-G-T-F-T-S-D-L-S-I-Q-K(γE-x53)-DKRAAQDFIEWLKNGGPSSGAPPPS-NH2]		0.0089	71	> 1000	> 1000	significant decrease in blood glucose	3790	2.8			
CCCCCCCCCCCCCCCC(=O)N[C@@H](CCC(=O)NCCCC[C@H](NC(=O)[C@H](CCC(N)=O)NC(=O)[C@@H](NC(=O)[C@H](CO)NC(=O)[C@H](CC(C)C)NC(=O)[C@H](CC(=O)O)NC(=O)[C@H](CO)NC(=O)[C@@H](NC(=O)[C@H](Cc1ccccc1)NC(=O)[C@@H](NC(=O)CNC(=O)[C@H](CCC(=O)O)NC(=O)C(C)(C)NC(=O)[C@@H](N)Cc1ccc(O)cc1)[C@@H](C)O)[C@@H](C)O)[C@@H](C)CC)C(=O)N[C@@H](CCC(=O)O)C(=O)N[C@@H](CCCCN)C(=O)N[C@@H](CCCNC(=N)N)C(=O)N[C@@H](C)C(=O)N[C@@H](C)C(=O)N[C@@H](CCC(N)=O)C(=O)N[C@@H](CCC(=O)O)C(=O)N[C@@H](Cc1ccccc1)C(=O)N[C@H](C(=O)N[C@@H](CCC(=O)O)C(=O)N[C@@H](Cc1c[nH]c2ccccc12)C(=O)N[C@@H](CC(C)C)C(=O)N[C@@H](CCCCN)C(=O)N[C@@H](C)C(=O)NCC(=O)NCC(=O)N1CCC[C@H]1C(=O)N[C@@H](CO)C(=O)N[C@@H](CO)C(=O)NCC(=O)N[C@@H](C)C(=O)N1CCC[C@H]1C(=O)N1CCC[C@H]1C(=O)N1CCC[C@H]1C(=O)N[C@@H](CO)C(N)=O)[C@@H](C)CC)C(=O)O [SEQ ID NO: 34, Y-Aib-E-G-T-F-T-S-D-L-S-I-Q-K(γE-x53)-EKRAAQEFIEWLKAGGPSSGAPPPS-NH2] (H-Y[Aib]EGTFTSDLSIQK([γGlu-Palmitoyl])EKRAAQEFIEWLKAGGPSSGAPPPS-NH2)	11.6								0.0046	5130	2.8
